Molecular target: p38 map kinase (Homo sapiens, UniProt Q16539)
Assay: p38 map kinase SPA [33P] assay
Assay type: biochemical
Details: 10 μM ATP, 2.5 μM biotinylated MBP substrate, 90 min at 30° C.
Text: The assay makes use of the serine/threonine protein kinase SPA [^33P]-assay kit from Amersham Pharmacia Biotech. The assay is a homogeneous technique using SPA technology for the quantification of serine threonine kinase activity.
It is based on the p38 map kinase catalysed transfer of the γ-phosphate group of the [γ-^33P]-ATP to the substrate, biotinylated myelin basic protein (MBP). The resulting [^33P]-labelled biotinylated product is trapped on a PVT SPA bead containing scintillant which has been surface coated with streptavidin.
The beads are allowed to settle to eliminate high background, and therefore only ^33P_labelled product attached to the SPA bead is detected.
The assay is carried out in the presence and absence of test compounds to determine their effect on p38 map kinase activity.
A Test Protocol is as Follows:
• 1. SPA assay kit (Amersham). Components: • Assay buffer (store frozen) • Stop solution (store frozen) • Streptavidin coated SPA beads—reconstitute with 5 ml of PBS (50 mg/ml) (store in fridge) • 2. p38 map kinase enzyme (500 μg/ml)—aliquoted in 1.5 ml • dilute 1:10 to 50 μg/ml • 1 plate: 110 μl (stock 500 μg/ml)+990 μl PBS. • 3. Assay reagent: • for 1 plate: 504 μl assay buffer [500 mM MOPS pH 7.2, 10 μM ATP, 50 mM MgCl2, 25 μM biotinylated myelin basic protein (MBP)] • 2513.4 μl water • 1.1 μl [^33P]-ATP (10 μCi/μl) (on activity date/adjust for activity date) • 4.534 μl X10-2M ATP in water • 4. Stop solution: • for 1 plate: 265.92 μl streptavidin coated beads (50 mg/ml) • 1651.68 μl stop buffer (500 μM ATP, 50 mM EDTA, 1% Triton X-100) • 7084.32 μl PBS. • 1. Add 10 μl compound dilutions (5× final conc.) to test wells • 2. Add 10 μl 12.5% DMSO to control/blank wells • 3. Add 10 μl enzyme (50 μg/ml)—final conc. 500 ng/well • 4. Add 10 μl PBS to blank wells • 5. Add 30 μl of assay reagent to each well (final conc. 10 μM ATP, 2.5 μM substrate) • 6. Mix well on plate shaker • 7. Incubate 90 min (30° C.) • 8. Add 75 μl of stop solution to each well (final conc. 55 μM ATP) • 9. Spin plate: 3 min/1600 rpm/20° C. (alternatively leave to settle overnight) • 10. Read in Microbeta, Protocol SPA paralux 3.

p38 map kinase, sequence (Q16539 whole entry): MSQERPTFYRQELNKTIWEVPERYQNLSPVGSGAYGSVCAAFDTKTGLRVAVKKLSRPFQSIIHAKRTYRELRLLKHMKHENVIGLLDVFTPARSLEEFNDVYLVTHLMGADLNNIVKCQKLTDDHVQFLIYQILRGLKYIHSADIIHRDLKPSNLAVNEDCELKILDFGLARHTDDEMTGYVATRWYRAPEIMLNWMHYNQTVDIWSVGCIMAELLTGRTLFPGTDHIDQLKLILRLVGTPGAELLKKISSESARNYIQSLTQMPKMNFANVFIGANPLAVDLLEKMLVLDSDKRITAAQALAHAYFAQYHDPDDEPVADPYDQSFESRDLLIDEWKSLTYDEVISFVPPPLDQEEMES

IC50	SMILES
325 nM	O=C(c1ccccc1)c1ccc(=O)n(Cc2ccccc2)c1NCc1ccccc1 [Example 2, 5-Benzoyl-1-benzyl-6-(benzylamino)-2(1H)-pyridinone]
299 nM	COc1ccc(-n2c(N)c(C(=O)c3ccccc3)ccc2=O)cc1 [Example 4, 6-Amino-5-benzoyl-1-(4-methoxyphenyl)-2(1H)-pyridinone]
1290 nM	O=C(c1ccccc1)c1ccc(=O)[nH]c1NC1CCCCC1 [Example 5, 5-Benzoyl-6-(cyclohexylamino)-2(1H)-pyridinone]
202 nM	Nc1c(C(=O)c2ccccc2)ccc(=O)n1-c1ccccc1 [Example 6, 6-Amino-5-benzoyl-1-phenyl-2(1H)-pyridinone]
209 nM	Cc1ccc(-n2c(N)c(C(=O)c3ccccc3)ccc2=O)cc1 [Example 9, 6-amino-5-benzoyl-1-(4-methylphenyl)-2(1H)-pyridinone]
1880 nM	CC(C)C(Nc1c(C(=O)c2ccccc2)ccc(=O)n1C)C(C)C [Example 14, 5-Benzoyl-6-[(1-isopropyl-2-methylpropyl)amino]-1-methyl-2(1H)-pyridinone]
4050 nM	O=C(c1ccccc1)c1ccc(=O)[nH]c1NCC1CCCCC1 [Example 15, 5-Benzoyl-6-[(cyclohexylmethyl)amino]-2(1H)-pyridinone]
127 nM	COc1ccc(-n2c(N)c(C(=O)c3ccc(F)cc3)ccc2=O)c(OC)c1 [Example 20, 6-Amino-1-(2,4-dimethoxyphenyl)-5-(4-fluorobenzoyl)-2(1H)-pyridinone]

— patent US20060046999A1, “Monocyclic aroylpyridinones as antiinflammatory agents” (priority 2002, published 2006)
